From PubChem BioAssay (NCI)
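Step 1: Grow cells in 96-well plates. Step 2: Expose to compound for 48 hours at 5 concentrations. Step 3: Interpolate endpoints linearly; if unreached, use highest concentration. GI50: concentration for 50% inhibition of growth. TGI denotes the concentration required for complete inhibition of growth.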

Tests used:
Experiment in all cases: growth of human tumour cells (NCI), 48 h
MCF7 breast = system: MCF7 breast
LOX IMVI melanoma = system: LOX IMVI melanoma
OVCAR-5 ovarian = system: OVCAR-5 ovarian
SK-MEL-28 melanoma = system: SK-MEL-28 melanoma
EKVX NSCLC = system: EKVX NSCLC
OVCAR-4 ovarian = system: OVCAR-4 ovarian
TK-10 renal = system: TK-10 renal
MALME-3M melanoma = system: MALME-3M melanoma
RXF 393 renal = system: RXF 393 renal
SW-620 colon = system: SW-620 colon

SMILES | TGI (MCF7 breast) | TGI (LOX IMVI melanoma) | TGI (OVCAR-5 ovarian) | TGI (SK-MEL-28 melanoma) | TGI (EKVX NSCLC) | TGI (OVCAR-4 ovarian) | TGI (TK-10 renal) | TGI (MALME-3M melanoma) | TGI (RXF 393 renal) | TGI (SW-620 colon) | GI50 (MCF7 breast) | GI50 (LOX IMVI melanoma) | GI50 (OVCAR-5 ovarian) | GI50 (SK-MEL-28 melanoma) | GI50 (EKVX NSCLC) | GI50 (OVCAR-4 ovarian) | GI50 (TK-10 renal) | GI50 (MALME-3M melanoma) | GI50 (RXF 393 renal) | GI50 (SW-620 colon)
C=C1C(=O)O[C@@H]2C[C@@H](C)[C@@H]3C=CC(=O)[C@@]3(C)[C@@H](OC(=O)CCCC(=O)O[C@H]3[C@@H]4C(=C)C(=O)O[C@@H]4C[C@@H](C)[C@@H]4C=CC(=O)[C@]43C)[C@H]12 | 0.805 µM | 0.152 µM | 0.387 µM | 0.136 µM | 0.264 µM | 0.262 µM | 0.296 µM | 0.0373 µM | 0.047 µM | 0.0432 µM | – | – | – | – | – | – | – | – | – | –
CC(C)(O)c1cc(Nc2cc(Oc3cn(C4CC4)nc3C3CCOCC3)ccn2)ccn1 | > 100 µM | > 100 µM | > 100 µM | > 100 µM | > 100 µM | > 100 µM | > 100 µM | > 100 µM | > 100 µM | > 100 µM | 35.3 µM | 35.1 µM | > 100 µM | > 100 µM | > 100 µM | > 100 µM | 69.8 µM | > 100 µM | 68.4 µM | > 100 µM
CC(C)C(Br)C(=O)NCC(=O)O (stereo not given) | > 100 µM | > 100 µM | > 100 µM | > 100 µM | > 100 µM | > 100 µM | > 100 µM | > 100 µM | > 100 µM | > 100 µM | – | – | – | – | – | – | – | – | – | –
CCCCC[C@H]1C/C=C2/C(=O)C=C[C@@H]2C/C=C\CCCC(=O)O1 | 5.44 µM | 0.18 µM | 2.73 µM | 0.705 µM | 1.97 µM | 5.94 µM | 0.41 µM | 5.02 µM | 0.223 µM | 1.06 µM | 0.0884 µM | 0.0899 µM | 0.221 µM | 0.155 µM | 0.172 µM | 0.189 µM | 0.171 µM | 0.5 µM | 0.0944 µM | 0.177 µM
Cc1cc(C)nc(NC(=O)COc2ccc(Cl)cc2)c1 | > 100 µM | > 100 µM | > 100 µM | > 100 µM | > 100 µM | > 100 µM | > 100 µM | > 100 µM | > 100 µM | > 100 µM | – | – | – | – | – | – | – | – | – | –
Cn1cc(-c2csc(-c3ccc(Cl)cc3)n2)c2cccnc21 | 29.8 µM | 24.9 µM | 32.7 µM | 29.4 µM | 26.1 µM | 60.8 µM | 31.1 µM | 42.2 µM | 39.8 µM | 29.3 µM | 11.9 µM | 12.4 µM | 14.2 µM | 15.2 µM | 2.85 µM | 21.9 µM | 12.4 µM | 14.8 µM | 13.9 µM | 15 µM
CC(=O)/C(=N\N=C(N)N)c1ccccc1 | > 100 µM | > 100 µM | > 100 µM | > 100 µM | > 100 µM | > 100 µM | > 100 µM | > 100 µM | > 100 µM | > 100 µM | – | – | – | – | – | – | – | – | – | –
COc1cc(N)c(Cl)cc1C(=O)N[C@@H]1CCN(CCCOc2ccc(F)cc2)C[C@@H]1OC | > 100 µM | > 100 µM | > 100 µM | > 100 µM | > 100 µM | > 100 µM | > 100 µM | > 100 µM | > 100 µM | > 100 µM | 57 µM | 27 µM | > 100 µM | > 100 µM | > 100 µM | > 100 µM | > 100 µM | > 100 µM | > 100 µM | > 100 µM
S=C(Nc1ccc(-c2nc3ccccc3s2)cc1)Nc1ccc(-c2nc3ccccc3s2)cc1 | 59 µM | 30.5 µM | 48.8 µM | 54.8 µM | 30.2 µM | 99.4 µM | 63.2 µM | 65.4 µM | 50.4 µM | 67.3 µM | 25 µM | 15.2 µM | 20.1 µM | 22.3 µM | 8.79 µM | 24.4 µM | 18.3 µM | 20 µM | 15.9 µM | 23.7 µM
COc1ccc(N=c2nc3sc4cc(Cl)ccc4n3c(N)c2C#N)cc1 | 21.5 µM | 5.07 µM | > 100 µM | 22.9 µM | > 100 µM | > 100 µM | 45.5 µM | 7.42 µM | > 100 µM | 29.7 µM | 1.92 µM | 2.06 µM | 5.21 µM | 2.92 µM | 2.45 µM | 3.51 µM | 4.61 µM | 2.25 µM | 5.27 µM | 3.69 µM
CCN(CC)c1ccc(/C=N/N=C(N)N)cc1 | 14.8 µM | 19.9 µM | > 100 µM | 20.3 µM | 93.8 µM | 39.5 µM | 28.4 µM | 18.7 µM | 11.7 µM | 13.6 µM | 2.62 µM | 5.02 µM | 17.1 µM | 6.27 µM | 7.59 µM | 5.74 µM | 7.87 µM | 4.45 µM | 2.85 µM | 3.08 µM
COc1ccc(C(=O)c2ccccc2)c(O)c1 | > 100 µM | > 100 µM | > 100 µM | > 100 µM | > 100 µM | > 100 µM | > 100 µM | > 100 µM | > 100 µM | > 100 µM | > 100 µM | 92 µM | > 100 µM | > 100 µM | 40.9 µM | > 100 µM | > 100 µM | 61.4 µM | 41 µM | > 100 µM
CC(=O)c1nc(-c2ccc(C[C@@H](CNC(=O)CN(C)C)NC(=O)c3ccc(OC(C)C)c(Cl)c3)cc2)cn1C | 14.4 µM | 16.5 µM | 18.6 µM | 22.6 µM | 17.8 µM | 22.9 µM | 25 µM | 18.2 µM | 16.6 µM | 20.4 µM | 0.0398 µM | 0.16 µM | 0.0618 µM | 8.01 µM | 0.0455 µM | 0.842 µM | 12.1 µM | 0.277 µM | 0.0628 µM | 0.0663 µM
COc1ccc2c(c1)[n+](=O)c(/C=C/C(=O)c1cc(OC)c(OC)c(OC)c1)c(C)n2[O-] | > 100 µM | 28.6 µM | > 100 µM | 50.9 µM | > 100 µM | > 100 µM | > 100 µM | > 100 µM | > 100 µM | 47.6 µM | 3.14 µM | 3.95 µM | 28.7 µM | 12.3 µM | 5.82 µM | 9.35 µM | 8.74 µM | 17 µM | 3.98 µM | 4.03 µM
O=C1C=C(NCCc2ccccc2)c2ccccc2C1=O | 3.34 µM | 3.37 µM | 3.39 µM | 3.96 µM | 20.8 µM | 13.4 µM | 27.3 µM | 2.47 µM | 20.4 µM | 4.31 µM | – | – | – | – | – | – | – | – | – | –
